Data published in PubChem BioAssay (NCI).
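Results reflect a 48-hour exposure of cells in 96-well plates to compound at five concentrations. GI50: concentration for 50% inhibition of growth. TGI is the concentration that stops growth completely.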

Assays:
Test in all cases: inhibition of tumour cell growth, NCI panel, 48 h
HS 578T breast = system: HS 578T breast
TK-10 renal = system: TK-10 renal
EKVX NSCLC = system: EKVX NSCLC
NCI-H522 lung = system: NCI-H522 lung
K-562 leukemia = system: K-562 leukemia
RPMI-8226 leukemia = system: RPMI-8226 leukemia
UO-31 renal = system: UO-31 renal
MDA-MB-231 breast = system: MDA-MB-231 breast
ACHN renal = system: ACHN renal
SF-268 CNS = system: SF-268 CNS
HCC-2998 colon = system: HCC-2998 colon
UACC-257 melanoma = system: UACC-257 melanoma
U251 CNS = system: U251 CNS
HCT-116 colon = system: HCT-116 colon
IGROV1 ovarian = system: IGROV1 ovarian
NCI-H23 lung = system: NCI-H23 lung
SK-MEL-2 melanoma = system: SK-MEL-2 melanoma
MALME-3M melanoma = system: MALME-3M melanoma
NCI/ADR-RES ovarian = system: NCI/ADR-RES ovarian
786-0 renal = system: 786-0 renal
RXF 393 renal = system: RXF 393 renal
OVCAR-5 ovarian = system: OVCAR-5 ovarian
SF-295 CNS = system: SF-295 CNS
MCF7 breast = system: MCF7 breast
HCT-15 colon = system: HCT-15 colon
SK-OV-3 ovarian = system: SK-OV-3 ovarian
BT-549 breast = system: BT-549 breast
HOP-92 NSCLC = system: HOP-92 NSCLC
SN12C renal = system: SN12C renal
HOP-62 NSCLC = system: HOP-62 NSCLC
PC-3 prostate = system: PC-3 prostate
OVCAR-8 ovarian = system: OVCAR-8 ovarian
SNB-19 CNS = system: SNB-19 CNS
HL-60(TB) leukemia = system: HL-60(TB) leukemia
T-47D breast = system: T-47D breast
SK-MEL-5 melanoma = system: SK-MEL-5 melanoma
UACC-62 melanoma = system: UACC-62 melanoma
SR leukemia = system: SR leukemia
CAKI-1 renal = system: CAKI-1 renal
OVCAR-4 ovarian = system: OVCAR-4 ovarian
DU-145 prostate = system: DU-145 prostate
SW-620 colon = system: SW-620 colon
MOLT-4 leukemia = system: MOLT-4 leukemia
CCRF-CEM leukemia = system: CCRF-CEM leukemia
NCI-H460 lung = system: NCI-H460 lung
SK-MEL-28 melanoma = system: SK-MEL-28 melanoma
A498 renal = system: A498 renal
HT29 colon = system: HT29 colon
NCI-H226 lung = system: NCI-H226 lung
SF-539 CNS = system: SF-539 CNS
A549 NSCLC = system: A549 NSCLC
OVCAR-3 ovarian = system: OVCAR-3 ovarian
SNB-75 CNS = system: SNB-75 CNS
M14 melanoma = system: M14 melanoma
KM12 colon = system: KM12 colon
LOX IMVI melanoma = system: LOX IMVI melanoma

## O=C(N/N=C/c1ccc(Br)s1)c1[nH]c2ccc(Br)cc2c1-c1ccccc1
HS 578T breast
  GI50: 791 nM
  TGI: 41900 nM
TK-10 renal
  GI50: 8830 nM
  TGI: > 82800 nM
EKVX NSCLC
  GI50: 4920 nM
  TGI: > 100000 nM
NCI-H522 lung
  GI50: 89.8 nM
  TGI: 344 nM
K-562 leukemia
  GI50: 327 nM
  TGI: > 100000 nM
RPMI-8226 leukemia
  GI50: 377 nM
  TGI: > 62500 nM
UO-31 renal
  GI50: 1400 nM
  TGI: > 100000 nM
MDA-MB-231 breast
  GI50: 2310 nM
  TGI: > 100000 nM
ACHN renal
  GI50: 903 nM
  TGI: > 45500 nM
SF-268 CNS
  GI50: 1610 nM
  TGI: > 100000 nM
HCC-2998 colon
  GI50: 1040 nM
  TGI: > 47400 nM
UACC-257 melanoma
  GI50: 1060 nM
  TGI: > 88300 nM
U251 CNS
  GI50: 989 nM
  TGI: > 39900 nM
HCT-116 colon
  GI50: 282 nM
  TGI: > 100000 nM
IGROV1 ovarian
  GI50: 983 nM
  TGI: > 39100 nM
NCI-H23 lung
  GI50: 895 nM
  TGI: > 51700 nM
SK-MEL-2 melanoma
  GI50: 710 nM
  TGI: > 50400 nM
MALME-3M melanoma
  GI50: 1310 nM
  TGI: > 68100 nM
NCI/ADR-RES ovarian
  GI50: 131 nM
  TGI: 7110 nM
786-0 renal
  GI50: 1260 nM
  TGI: > 100000 nM
RXF 393 renal
  GI50: 1270 nM
  TGI: 37300 nM
OVCAR-5 ovarian
  GI50: 863 nM
  TGI: > 86100 nM
SF-295 CNS
  GI50: 907 nM
  TGI: 11000 nM
MCF7 breast
  GI50: 852 nM
  TGI: > 34500 nM
HCT-15 colon
  GI50: 934 nM
  TGI: > 36200 nM
SK-OV-3 ovarian
  GI50: 4070 nM
  TGI: > 100000 nM
BT-549 breast
  GI50: 738 nM
  TGI: 2160 nM
HOP-92 NSCLC
  GI50: 462 nM
  TGI: > 69100 nM
SN12C renal
  GI50: 547 nM
  TGI: > 38200 nM
HOP-62 NSCLC
  GI50: 1290 nM
  TGI: > 66900 nM
PC-3 prostate
  GI50: 386 nM
  TGI: > 52300 nM
OVCAR-8 ovarian
  GI50: 296 nM
  TGI: 1820 nM
SNB-19 CNS
  GI50: 1070 nM
  TGI: > 95700 nM
HL-60(TB) leukemia
  GI50: < 48.4 nM
  TGI: 387 nM
T-47D breast
  GI50: 7050 nM
  TGI: > 100000 nM
SK-MEL-5 melanoma
  GI50: 675 nM
  TGI: 1520 nM
UACC-62 melanoma
  GI50: 1030 nM
  TGI: > 46100 nM
SR leukemia
  GI50: 270 nM
  TGI: > 50100 nM
CAKI-1 renal
  GI50: 1240 nM
  TGI: > 39000 nM
OVCAR-4 ovarian
  GI50: 1210 nM
  TGI: > 53000 nM
DU-145 prostate
  GI50: 700 nM
  TGI: > 59800 nM
SW-620 colon
  GI50: 418 nM
  TGI: > 100000 nM
MOLT-4 leukemia
  GI50: 203 nM
  TGI: 38900 nM
CCRF-CEM leukemia
  GI50: 370 nM
  TGI: > 100000 nM
NCI-H460 lung
  GI50: 762 nM
  TGI: 8090 nM
SK-MEL-28 melanoma
  GI50: 1720 nM
  TGI: > 88000 nM
A498 renal
  GI50: 35200 nM
  TGI: > 84100 nM
HT29 colon
  GI50: 311 nM
  TGI: > 35800 nM
NCI-H226 lung
  GI50: 826 nM
  TGI: > 37000 nM
SF-539 CNS
  GI50: 292 nM
  TGI: 1150 nM
A549 NSCLC
  GI50: 1010 nM
  TGI: > 44000 nM
OVCAR-3 ovarian
  GI50: 638 nM
  TGI: 38400 nM
SNB-75 CNS
  GI50: 843 nM
  TGI: 7950 nM
M14 melanoma
  GI50: 1030 nM
  TGI: > 100000 nM
KM12 colon
  GI50: 1180 nM
  TGI: > 79600 nM
LOX IMVI melanoma
  GI50: 312 nM
  TGI: 1350 nM
